Results: PMC9026428, “New Peptide Based Fluconazole Conjugates with Expanded Molecular Targets” (Pharmaceutics, 2022)
Converted amounts (≈) assume the structure as drawn.

Columns and labels:
Experiment in all cases: microbe, parasite or virus in culture
Candida krusei DSM 11226 = conditions: C. krusei DSM 11226, 37 °C; for MIC50 / MIC90: RPMI 1640/MOPS pH 7.0, 24 h, triplicate; for MIC50: at least 50% growth inhibition vs growth control; for MIC90: lowest concentration with no visible growth
In short: (§1)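 Values come from modified CLSI M27-A3 broth microdilution at 37 °C for 24 h. Medium was RPMI 1640 with L-glutamine, no bicarbonate, buffered with 0.165 M MOPS to pH 7.0. Final DMSO was about 1%.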

Candida albicans Gu5 = conditions: C. albicans Gu5 (fluconazole-resistant, CDR1/2 overexpression), RPMI 1640/MOPS pH 7.0, 24 h, 37 °C, triplicate; for MIC50: at least 50% growth inhibition vs growth control; for MIC90: lowest concentration with no visible growth
In short: (§2)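 Yeasts were exposed to compounds in MOPS-buffered RPMI 1640 (pH 7.0) following a modified CLSI M27-A3 protocol and incubated 24 h at 37 °C. Wells were then subcultured onto drug-free YPD agar for a further 24 h to obtain minimum fungicidal concentrations.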

Candida albicans 574 = conditions: C. albicans 574 (fluconazole-resistant clinical isolate), RPMI 1640/MOPS pH 7.0, 24 h, 37 °C, triplicate; for MIC50: at least 50% growth inhibition vs growth control; for MIC90: lowest concentration with no visible growth
In short: as §1

Candida albicans 604 = conditions: 37 °C; for MIC50 / MIC90: C. albicans 604 (fluconazole-resistant clinical isolate), RPMI 1640/MOPS pH 7.0, 24 h, triplicate; for MIC50: at least 50% growth inhibition vs growth control; for MIC90: lowest concentration with no visible growth
In short: as §1

Candida albicans B4 = conditions: 37 °C; for MIC50 / MIC90: C. albicans B4 (fluconazole-resistant, MDR1 overexpression), RPMI 1640/MOPS pH 7.0, 24 h, triplicate; for MIC50: at least 50% growth inhibition vs growth control; for MIC90: lowest concentration with no visible growth
In short: as §2

Candida albicans 138 = conditions: 37 °C; for MIC50 / MIC90: C. albicans 138 (fluconazole-resistant clinical isolate), RPMI 1640/MOPS pH 7.0, 24 h, triplicate; for MIC50: at least 50% growth inhibition vs growth control; for MIC90: lowest concentration with no visible growth
In short: as §2

Candida albicans 190 = conditions: 37 °C; for MIC50 / MIC90: C. albicans 190 (fluconazole-resistant clinical isolate), RPMI 1640/MOPS pH 7.0, 24 h, triplicate; for MIC50: at least 50% growth inhibition vs growth control; for MIC90: lowest concentration with no visible growth
In short: as §1

[1] = test system: Candida albicans ATCC 10231; conditions: C. albicans ATCC 10231, 37 °C; for MIC50 / MIC90: RPMI 1640/MOPS pH 7.0, 24 h, triplicate; for MIC50: at least 50% growth inhibition vs growth control; for MIC90: lowest concentration with no visible growth
In short: as §2

Candida albicans SC 5314 = conditions: C. albicans SC 5314, 37 °C; for MIC50 / MIC90: RPMI 1640/MOPS pH 7.0, 24 h, triplicate; for MIC50: at least 50% growth inhibition vs growth control; for MIC90: lowest concentration with no visible growth
In short: as §1

[2] = test system: Candida glabrata DSM 6128; conditions: C. glabrata DSM 6128, RPMI 1640/MOPS pH 7.0, 24 h, 37 °C, triplicate; for MIC50: at least 50% growth inhibition vs growth control; for MIC90: lowest concentration with no visible growth
In short: as §1

Candida albicans Gu4 = conditions: 37 °C; for MIC50 / MIC90: C. albicans Gu4 (fluconazole-sensitive isolate), RPMI 1640/MOPS pH 7.0, 24 h, triplicate; for MIC50: at least 50% growth inhibition vs growth control; for MIC90: lowest concentration with no visible growth
In short: as §2

Candida albicans 48 = conditions: 37 °C; for MIC50 / MIC90: C. albicans 48 (fluconazole-resistant clinical isolate), RPMI 1640/MOPS pH 7.0, 24 h, triplicate; for MIC50: at least 50% growth inhibition vs growth control; for MIC90: lowest concentration with no visible growth
In short: as §1

[3] = aliquots plated on YPD agar, 24 h, lowest concentration with no colony growth

## CC[C@H](C)[C@H](NC(=O)[C@H](CCCCN)NC(=O)[C@H](CCCCN)NC(=O)[C@H](C)NC(=O)[C@H](CC(C)C)NC(=O)[C@H](C)NC(=O)[C@H](C)NC(=O)[C@H](CC(C)C)NC(=O)[C@H](C)NC(=O)[C@H](CCCCN)NC(=O)[C@H](CC(C)C)NC(=O)[C@H](CC(N)=O)NC(=O)[C@@H](NC(=O)[C@H](CCCCN)NC(=O)CNC(=O)[C@H](CC(C)C)NC(=O)[C@H](CC(C)C)NC(=O)[C@H](Cc1ccc(O)cc1)NC(=O)CNC(=O)[C@H](C)NC(=O)CCCC(=O)OC(Cn1cncn1)(Cn1cncn1)c1ccc(F)cc1F)[C@@H](C)CC)C(=O)N[C@@H](CC(C)C)C(N)=O [FLCpOH-TP10-NH2]
Candida krusei DSM 11226
  MIC50: 62 µM (≈ 160 µg/mL)
  MIC90: 125 µM (≈ 323 µg/mL)
Candida krusei DSM 11226; [3]
  MFC: 250 µM (≈ 646 µg/mL)
Candida albicans Gu5
  MIC50: 62 µM (≈ 160 µg/mL)
  MIC90: 125 µM (≈ 323 µg/mL)
Candida albicans 574
  MIC50: 45 µM (≈ 116 µg/mL)
  MIC90: 62 µM (≈ 160 µg/mL)
Candida albicans 604
  MIC50: 45 µM (≈ 116 µg/mL)
  MIC90: 62 µM (≈ 160 µg/mL)
Candida albicans 604; C. albicans 604, aliquots plated on YPD agar, 24 h, lowest concentration with no colony growth
  MFC: 250 µM (≈ 646 µg/mL)
Candida albicans B4
  MIC50: 62 µM (≈ 160 µg/mL)
  MIC90: 125 µM (≈ 323 µg/mL)
Candida albicans B4; C. albicans B4, aliquots plated on YPD agar, 24 h, lowest concentration with no colony growth
  MFC: 125 µM (≈ 323 µg/mL)
Candida albicans 138
  MIC50: 45 µM (≈ 116 µg/mL)
  MIC90: 62 µM (≈ 160 µg/mL)
Candida albicans 138; C. albicans 138, aliquots plated on YPD agar, 24 h, lowest concentration with no colony growth
  MFC: 250 µM (≈ 646 µg/mL)
Candida albicans 190
  MIC50: 45 µM (≈ 116 µg/mL)
  MIC90: 62 µM (≈ 160 µg/mL)
Candida albicans 190; C. albicans 190, aliquots plated on YPD agar, 24 h, lowest concentration with no colony growth
  MFC: 250 µM (≈ 646 µg/mL)
[1]
  MIC50: 15 µM (≈ 38.8 µg/mL)
  MIC90: 31 µM (≈ 80.1 µg/mL)
[1]; [3]
  MFC: 62 µM (≈ 160 µg/mL)
Candida albicans SC 5314
  MIC50: 8 µM (≈ 20.7 µg/mL)
  MIC90: 15 µM (≈ 38.8 µg/mL)
Candida albicans SC 5314; [3]
  MFC: 31 µM (≈ 80.1 µg/mL)
[2]
  MIC50: 62 µM (≈ 160 µg/mL)
  MIC90: 125 µM (≈ 323 µg/mL)
Candida albicans Gu4
  MIC50: 45 µM (≈ 116 µg/mL)
  MIC90: 62 µM (≈ 160 µg/mL)
Candida albicans Gu4; C. albicans Gu4, aliquots plated on YPD agar, 24 h, lowest concentration with no colony growth
  MFC: 62 µM (≈ 160 µg/mL)
Candida albicans 48
  MIC50: 45 µM (≈ 116 µg/mL)
  MIC90: 62 µM (≈ 160 µg/mL)
Candida albicans 48; C. albicans 48, aliquots plated on YPD agar, 24 h, lowest concentration with no colony growth
  MFC: 250 µM (≈ 646 µg/mL)

## O=C(O)CCCC(=O)OC(Cn1cncn1)(Cn1cncn1)c1ccc(F)cc1F [FLCpOH]
Candida krusei DSM 11226
  MIC50: >250 µM
  MIC90: >250 µM
Candida albicans Gu5
  MIC50: >250 µM
  MIC90: >250 µM
Candida albicans 574
  MIC50: >250 µM
  MIC90: >250 µM
Candida albicans 604
  MIC50: >250 µM
  MIC90: >250 µM
Candida albicans B4
  MIC50: >250 µM
  MIC90: >250 µM
Candida albicans 138
  MIC50: >250 µM
  MIC90: >250 µM
Candida albicans 190
  MIC50: >250 µM
  MIC90: >250 µM
[1]
  MIC50: >250 µM
  MIC90: >250 µM
Candida albicans SC 5314
  MIC50: >250 µM
  MIC90: >250 µM
[2]
  MIC50: >250 µM
  MIC90: >250 µM
Candida albicans Gu4
  MIC50: >250 µM
  MIC90: >250 µM
Candida albicans 48
  MIC50: >250 µM
  MIC90: >250 µM
